# Several values for one entry are separate records, joined by “and”; a condition that tells them apart may be missing. Equal entries are not always repeated. Where two headings read alike, the source gives them in different places.
# Assays:
# GFP-PfPK9 = GFP-PfPK9 (Plasmodium falciparum, UniProt Q8IEG4); experiment: ATP-competitive binding assay (ATP-sepharose pull-down, FLECS)
# Protocol: Primary small-molecule screen. A small-molecule screen was performed similar to a previously reported fluorescence linked enzyme chemoproteomic strategy (FLECS). Briefly, HEK293-GFP-PfPK9 cells were grown in 182-cm^2 tissue culture flasks (Genesee Scientific) and harvested at ˜80% cell confluency. Before assays the culture medium was aspirated, cells were rinsed with ice cold PBS and then they were removed with a cell scraper. Cells were pelleted by centrifugation (2,000 rpm, 4° C., 2 min) and immediately lysed for assays. The pellet was suspended in buffer A (25 mM HEPES, pH 7.4, 150 mM NaCl, 60 mM MgCl2, 1 mM DTT) with 1 μM microcystin, 0.1% Triton X-100 plus a Roche Complete protease inhibitor tablet and then placed on ice for 30 min to facilitate lysis. The supernatant was collected after centrifugation (4,300 rpm, 4° C., 5 min) and used in subsequent screening and titrations experiments. For screening, the supernatant was added to ATP-sepharose beads (1:1) and incubated with agitation at 4° C. for at least 1 hr to allow binding. Following this incubation, the mixture was centrifuged, the ATP resin was washed with 9 column volumes of buffer A with 1 M NaCl and then 9 column volumes of buffer A. The ATP-sepharose medium was reconstituted as a 1:1 slurry with buffer A and then added to 96-well filter plates (50 μL/well) (Corning #3505) using a multichannel pipette (Rainin). The filter plate was on top of black 96-well catch plates (Corning #3915). An ATP dilution series (1-200 mM) was added to each plate as a positive control and DMSO was the negative control. Compounds and controls were all added to 50 μL per well in buffer A. For screening, compounds were tested in singlicate at 500 μM. The final DMSO concentration in every well was 5%. The fluorescence intensity in each well was measured on an EnVision system. Data analyses of screens were carried out in EXCEL (Microsoft, Corp.) and actives were identified as 2×background signal.
# All screening positives that were verified with Western blot analysis were purchased from Enamine or Vitas-M laboratory. The purity of compounds 1-5 (shown below) was verified by high-resolution MS (Agilent). Compounds were tested in 8-point dose-response (0-500 μM) experiments in duplicate, essential as described above. The fluorescence intensity in each well was measured using an EnVision system. Dose-response analysis was performed with GraphPad Prism to acquire EC50 values. Determined EC50 values were used to calculate the observed PfPK9 Kd and reported values are the average of 2-3 independent experiments.
# Stable cell line generation. The P. falciparum PK9 gene (PlasmoDB accession #PF3D7_1315100) was cloned into the pEGFP-C1 mammalian expression vector (Clontech) in frame with a […] GFP tag. For screening, HEK293 cells were transfected with the resulting PfPK9-pEGFP-C1 vector to generate HEK293-GFP-PfPK9 expressing cells using X-tremeGENE HP transfection reagent (Roche) per the manufacturer instructions. Briefly, the culture medium was replaced at 48 hours post-transfection with medium supplemented with 1 mg/mL G418 sulfate (Life Technologies) to select for stably transfected cells. Following stable cell selection, fluorescence activated cell sorting (FACS) was used to enrich for GFP-PfPK9 expressing cells. Subsequently, FACS sorted HEK293-GFP-PfPK9 cells were cultured with medium supplemented with 0.5 mg/mL G418 sulfate for all following experiments. Protein expression was verified by Western blot analysis probing for anti-GFP and by fluorescence intensity using an EnVision (PerkinElmer) system.
# All 14 positive molecules were also tested for their binding affinity to PfPK9 using an optimized ATP-competitive binding assay. EC50 values ranging from low μM to low mM were observed and these EC50 values were used to derive dissociation constants as described previously. […]
# P. berghei [1] = experiment: Liver stage parasite load, luciferase-expressing P. berghei in HepG2 cells; format: cell-based, Plasmodium berghei ANKA; conditions: HepG2 host cells
# Protocol: (§1) Cell-based anti-Plasmodium assays. For liver stage assays, 15,000 HepG2 or 8,000 Huh7 cells/well were added to 384-well microtiter plates using a multichannel pipette (Rainin). After 2 hours at 37° C., compounds (0-100 μM) were added to cells in duplicate or triplicate in a final concentration of 1% DMSO. DMSO was used as the negative control. Following compound incubation at 37° C. for ˜1 hr, harvested luciferase-expressing P. berghei ANKA sporozoites were added to the plates at a density of 3,000 sporozoites/well. P. berghei ANKA sporozoites were obtained from harvesting the salivary glands of infected A. stephensi mosquitoes. The plates were spun for 10 min at 1,000 rpm, and then incubated at 37° C. for ˜45 hrs. […] After ˜45 hours at 37° C., liver cell viability was assessed using CellTiter-Fluor (Promega) and then parasite load was determined using Bright-Glo (Promega). The relative fluorescence and luminescence signal intensity of each well was evaluated with an EnVision System. The luminescence signal in the presence of compounds was normalized to the negative control (DMSO). Dose-response analysis was performed with GraphPad Prism to yield the reported EC50 values.
# (§2) Anti-Plasmodium activity was evaluated in the parasite's liver stage using a previously reported high-throughput assay. In this assay, luciferase-expressing P. berghei (murine) parasites are used to infect human hepatoma cells (HepG2) and parasite load is assessed with a luminometer subsequent to evaluating HepG2 viability using a commercially available quantification kit that measures intracellular protease activity.
# (§3) Specifically, their ability to inhibit P. berghei infection in two human hepatoma cell lines (HepG2 and Huh7) as well as cytotoxicity against HepG2 and Huh7 cells was determined as described above. Liver cell cytotoxicity was evaluated with two different commercially available assays, one that tests for intracellular protease activity with a fluorescence reporter and another that relies on the luminescent detection of total ATP.
# P. berghei [2] = experiment: Liver stage parasite load, luciferase-expressing P. berghei in Huh7 cells; format: cell-based, Plasmodium berghei ANKA; conditions: Huh7 host cells, read-out: IC50 Liver state (Huh7)
# Protocol: as §1, §3
# HepG2 cells = experiment: HepG2 cell viability / cytotoxicity; format: cell-based, human
# Protocol: as §1, §2, §3
# Huh7 cells = experiment: Huh7 cell viability / cytotoxicity; format: cell-based, human
# Protocol: as §1, with “After 2 hours at 37° C., compounds (0-100 μM) were added to cells in duplicate or triplicate in a final concentration of 1% DMSO.” left out
# as §3
# TAK1-TAB1 = biological target: T1, TAK1-TAB1 (Homo sapiens, UniProt O43318); experiment: TAK1-TAB1 kinase assay ([32P]-ATP); format: biochemical; conditions: compared to 206 (FIG. 14)
# T1 sequence (O43318 with tags, fused parts or gaps limits assumed): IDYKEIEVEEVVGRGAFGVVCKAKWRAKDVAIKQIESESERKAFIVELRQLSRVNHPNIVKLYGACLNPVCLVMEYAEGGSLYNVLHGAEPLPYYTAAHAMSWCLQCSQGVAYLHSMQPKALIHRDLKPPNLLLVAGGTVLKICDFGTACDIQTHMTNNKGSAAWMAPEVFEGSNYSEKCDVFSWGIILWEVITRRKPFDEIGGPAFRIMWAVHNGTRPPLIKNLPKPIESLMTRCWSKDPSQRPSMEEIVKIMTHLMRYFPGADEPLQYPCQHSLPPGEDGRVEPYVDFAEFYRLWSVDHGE
# Protocol: Kinase Assay. […] In brief, TAK1-TAB1 (50 ng/well) was incubated with 5 μM ATP containing radiolabeled [^32P]-ATP in the presence of 300 μM substrate peptide ([…]) in a final volume of 40 μl in the presence of buffer (containing 50 mM Tris pH 7.5, 0.1 mM EGTA, 0.1% β-Mercaptoethanol, 10 mM magnesium acetate, 0.5 mM MnCl) and indicated compounds. The reaction was let go for 10 min and stopped with 10 μl concentrated H3PO4. The remaining activity was measured using a scintillation counter. Dose-response curves were repeated 3 times. For kinetic mechanistic studies, experiments were repeated two times and averaged.
# A challenge in designing chemical biology probes lies in choosing an appropriate ligand for a protein target and developing chemistry that allows attachment of a linker without disrupting activity of the ligand. […] The focus was on modifying the aminobenzimidazole moiety.
# [3] = GFP-PfPK9, Kd calculated from EC50 of ATP pull-down dose-response, read-out: Kd, app
# [4] = Plasmodium berghei, HepG2, parasite load
# [5] = Plasmodium berghei, Huh-7, parasite load
# Sequence of GFP-PfPK9 (Q8IEG4 entry or part of it): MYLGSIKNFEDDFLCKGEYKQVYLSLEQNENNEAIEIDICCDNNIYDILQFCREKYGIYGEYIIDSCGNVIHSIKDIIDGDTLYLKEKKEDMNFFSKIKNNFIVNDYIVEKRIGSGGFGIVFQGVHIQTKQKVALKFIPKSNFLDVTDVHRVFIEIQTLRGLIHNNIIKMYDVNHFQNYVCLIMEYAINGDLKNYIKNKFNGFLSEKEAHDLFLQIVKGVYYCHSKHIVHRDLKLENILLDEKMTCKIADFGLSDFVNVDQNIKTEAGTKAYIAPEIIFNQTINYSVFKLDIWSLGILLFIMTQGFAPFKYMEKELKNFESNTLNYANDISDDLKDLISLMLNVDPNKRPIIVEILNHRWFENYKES
structure (smiles),measurement,setting,value
CCCn1c(NC(=O)c2cncn2-c2ccc(F)cc2)nc2ccccc21 [compound 3],Kd,GFP-PfPK9; [3],0.6 µM
same,IC50,P. berghei [1]; [4],7.3 µM
same,IC50,P. berghei [2]; [5],4 µM
same,cytotoxicity in HepG2 cells,HepG2 cells; concentration not given,moderate cytotoxicity
CCCn1c(NC(=O)c2nn(-c3ccccc3)cc2OC)nc2ccccc21 [compound 2],Kd,GFP-PfPK9; [3],~7 µM and 7 µM
same,IC50,P. berghei [1]; [4],4.5 µM
same,IC50,P. berghei [2]; [5],0.09 µM
same,cytotoxic effect on cell viability vs DMSO control,"HepG2 cells; HepG2, 30 μM",significant cytotoxic effect
same,cytotoxic effect on cell viability vs DMSO control,Huh7 cells; 30 μM,significant cytotoxic effect
CCCn1/c(=N/C(=O)c2cccc(C(N)=O)c2)[nH]c2cc(/C=C/C(=O)O)ccc21 [HS-234],activity / potency in TAK1 kinase assay,TAK1-TAB1,slight reduction in potency
CCCn1/c(=N/C(=O)c2cccc(C(N)=O)c2)[nH]c2ccc(/C=C/C(=O)O)cc21 [HS-233],activity / potency in TAK1 kinase assay,TAK1-TAB1,slight reduction in potency
CCCn1/c(=N/C(=O)c2cccc(C(N)=O)c2)[nH]c2cc(/C=C/C(=O)OC)ccc21 [HS-235],activity / potency in TAK1 kinase assay,TAK1-TAB1,slight reduction in potency
O=C(Nc1cccc2cnccc12)C1CCCN(c2cnccn2)C1 (stereo not drawn) [compound 4],Kd,GFP-PfPK9; [3],3.2 µM
same,IC50,P. berghei [1]; [4],55 µM
same,IC50,P. berghei [1]; parasite load,54.5 µM
same,IC50,P. berghei [2]; [5],33 µM
same,IC50,P. berghei [2]; parasite load,33.3 µM
same,effect on liver cell viability,"HepG2 cells; HepG2, concentrations up to 200 μM",neither compound 4 or 5 had any significant effects on cell viability
same,effect on liver cell viability,Huh7 cells; concentrations up to 200 μM,neither compound 4 or 5 had any significant effects on cell viability
"Nc1ncnc2c1ncn2[C@@H]1O[C@H](COP(=O)(O)OP(=O)(O)OP(=O)(O)O)[C@@H](O)[C@H]1O [ATP, reference compound]",Kd,"GFP-PfPK9; native substrate, read-out: apparent Kd of ATP for GFP-PfPK9",~400 µM
NC(=O)c1cccc(C(=O)/N=c2\[nH]c3cc(Br)ccc3s2)c1 [HS-232],activity / potency in TAK1 kinase assay,TAK1-TAB1,did not show activity
